Test results from patent US5030715A, “Novel aminopimelic acids” (Roussel Uclaf, priority 1987, dated 1991).

Key:
Strain IP 52 145 = test: Antibacterial activity in vivo, protection of infected mice; parameters: species or system Swiss female mice; details: 5 mg/kg intramuscular 24 hours before intravenous infection with strain IP 52 145
Method: Swiss female mice weighing from 18 to 20 g (Charles River Cobs noninbred CDl) were used for this experiment with each group comprising 20 animals. The various products were put in solution in apyrogenous physiological serum to obtain concentrations of 1-10-100 mcg/mouse or: 50-500-5000 mcg/kg.
The lyophilized strain was re-hydrated with a few drops of soja trypcase broth (BioMerieux) and a tube of 10 ml of soja trypcase broth was inoculated with the suspension obtained and cultivated for 18 hours in an incubator at 37° C. Tubes of preserving agar (Pasteur) were inoculated with this culture by central stabing. After 18 hours of culture in an incubator at 37° C., the tubes were kept at 22° C.
A tube of soja trypcase broth was inoculated from a preserving agar and cultivated for 18 hours in an incubator at 37° C. Inclined soja trypcase agars were inoculated from this culture. […] The germ concentration was evaluated by counting with a Coulter Counter. […] The quantity of revivable germs injected was checked by spreading on Petri dishes containing trypcase agar.
Administration was done with an intramuscular injection in a volume of 0.05 ml/mouse 24 hours before infection. […] Where a clear increase in survival could not be detected after 21 days of observation, an average survival time (AST) was calculated for each group. […]

human monocytes [1] = test: Stimulation of monocyte cells: Tumor Necrosis Factor (TNF) test on culture supernatants; format: cell-based; details: for direct effect on human monocytes, production of a TNF activity in the culture supernatants: with 5 g of product
Method: (§1) The mononucleus cells of the circulating blood of normal donors were separated according to the standard technique described by Boyum using a Ficoll gradient. After washing, the mononuclear cells were incubated at 37° C. for one hour at the rate of 5.10^6 monocytes (NSE^+ cells) per ml of culture medium using 5 ml per culture flask. The culture medium used in this experiment was made up of RPMI 1640 with the addition of antibiotics and Hepes buffer. After one hour, the non-adherent cells were removed by washing the flasks with medium previously heated to 37° C. and the adherent cells composed mostly of monocytes (>90%) were put back in culture in complete RPMI medium without serum in the presence of various quantities of products under test, which had previously been put in solution in a buffer (Dulbecco) without Ca^2+ or Mg^2+. The culture was continued for 24 or 48 hours and the supernatants of the cells were then removed, centrifuged, separated into equal lots and held either at -80° C. or at -20° C. The supernatants of the culture were replaced in the flasks by the same amount of apyrogenous distilled water to dissolve the cells. The lysate was recovered, separated into equal lots and also kept at -20° C.
The TNF activity is shown by the toxicity of this factor on the L-929 target cells (sub-clone alpha) and the technique was sensitized by adding D actinomycin in the test. The L cells were distributed at a rate of 2×10^4 cells per well of a flat-bottomed microplate in 100 μl of RPMI 1640 medium enriched with 5% of calf serum, glutamine, Hepes buffer and antibiotics. After 24 hours, various dilutions of the supernatants under test were added in a volume of 100 μl, as well as a dose of D actinomycin of 1 μg/ml. After 24 hours of culture, the quantity of undissolved cells was evaluated by coloring the plates with crystal violet and measuring the optical density of the different wells on a multiscan reader. RESULTS: The product of Example 9 stimulated the monocytes and their production of IL-1 and TNF. Furthermore, there was synergy between the products and the gamma Interferon.

human monocytes [2] = test: Stimulation of monocyte cells: Interleukine-1 (IL-1) test on culture supernatants; format: cell-based; details: for direct effect on human monocytes, production of an IL-1 activity in the culture supernatants: with 5 g of product
Method: as §1
This test was described for the first time by Gery et al in 1972 [Gery et al 1972. Potentiation of the T lymphocyte response to mitogens. II. The cellular source of potentiating mediator (s) J. Exp. Med., 136-143]. It is based on the co-mitogen action of IL-1 in the presence of an antigen (mimicked by phytohemaglutinine in the test) on the thymocytes of mice. 1.5×10^6 thymocytes of mice C3H/HeJ (from the C.S.E.A.L. of Orleans) were put in culture for three days in the presence of various dilutions of supernatants and of cell lysates which may contain IL-1 activity and of PHA-P Wellcome (1 ug/ml) in culture plates with 96 flat bottomed wells, in a final volume of 200 ul of medium composed of RPMI 1640 containing in addition to antibiotics (penicillin 1 U/ml - streptomycin 1000 U/ml) of Hepes buffer, 1 mM of glutamine, 2 mM 5% of calf serum and […] of 2-mercapto ethanol. After 68 hours of culture, 1 μCi of tritiated thymidine was added to each well (^3 H-methyl thymidine, CEA Saclay, TMM79A specific activity 1 Ci/mM=37 GBq/mM) and the radioactivity incorporated by the cells was evaluated after the cultures had been filtered on Skatron type semi-automatic collecting apparatus and the filters had been counted in a liquid scintillation counter (Beckman). The results were expressed by the difference between the impulses per minute incorporated by the cultures in the presence of supernatants and the impulses per minute incorporated by the control cultures.

Providencia sp. DU48 = test: Antibacterial activity in vitro, agar diffusion in Davis Mingioli medium; format: cell-based; details: product at 25 mg/l, 24 hours at 37° C., read-out: inhibition zones observed (diameter in mm)
Method: (§2) The antibacterial activity of the products was determined by the method of diffusion in a Davis Mingioli medium with 1% of agar added to it. The agars used were poured into Petri dishes at 48° C., after inoculating with […] with the bacterial strain under test. The inocula came from a culture made 24 hours earlier in a Davis Mingioli broth. After the agars had hardened, the aqueous solutions of the products being studied were introduced into wells (9 mm) hollowed in the medium with a punch. The inhibition zones observed (diameter in mm) were measured after incubation for 24 hours at 37° C.

[3] = test system: Salmonella typhimurium MZ11; test: as above; format: cell-based; details: Salmonella enterica, product at 25 mg/l, 24 hours at 37° C., read-out: inhibition zones observed (diameter in mm)
Method: as §2

Escherichia Coli 078 = test: as above; format: cell-based; details: COLI078, product at 25 mg/l, 24 hours at 37° C., read-out: inhibition zones observed (diameter in mm)
Method: as §2

[4] = test system: Enterobacter cloacae 1321E; test: as above; format: cell-based; details: product at 25 mg/l, 24 hours at 37° C., read-out: inhibition zones observed (diameter in mm)
Method: as §2

[5] = human blood monocytes, culture 24 or 48 hours
[6] = in the presence of gamma Interferon (10^3 U/ml; CHU--IFN--g)

Structure (SMILES): CCCCCCCCCCCCCCCCCC(=O)N[C@@H](C)C(=O)N[C@H](CCC(=O)NC(CC=CCC(=O)[O-])C(=O)[O-])C(=O)O.[Na+].[Na+] (some centres unmarked) [Example 8]
- protection, expressed in AST (average survival time) or in survival at the end of 21 days of observation (Strain IP 52 145): particularly significant protection

Structure (SMILES): NCCCC[C@H](N)C(=O)NC(CC=CCC(=O)O)C(=O)O (stereo partly drawn) [Example 9, 6-(L-lysylamino)-3-heptenedioic acid]
- stimulation of the monocytes and their production of TNF (human monocytes [1]; [5]): stimulated
- production of monokines (TNF) in the presence of gamma Interferon (human monocytes [1]; [6]): at least increased the production
- direct effect on human monocytes, production of a TNF activity in the culture supernatants (human monocytes [1]): showed a direct effect
- stimulation of the monocytes and their production of IL-1 (human monocytes [2]; [5]): stimulated
- production of monokines (IL-1) in the presence of gamma Interferon (human monocytes [2]; [6]): at least increased the production
- direct effect on human monocytes, production of an IL-1 activity in the culture supernatants (human monocytes [2]): showed a direct effect

Structure (SMILES): NC(CC=CCC(=O)O)C(=O)O (centres unmarked) [Example 5, 6-amino-3-heptenedioic acid]
- direct effect on human monocytes, production of a TNF activity in the culture supernatants (human monocytes [1]): showed a direct effect
- direct effect on human monocytes, production of an IL-1 activity in the culture supernatants (human monocytes [2]): showed a direct effect

Structure (SMILES): C[C@H](N)C(=O)NC(C=CCCC(=O)O)C(=O)O (stereo partly drawn) [Example 13, 2-(L-alanylamino)-3-heptenedioic acid]
- zone of inhibition at 25 µg/mL (Providencia sp. DU48): 22 mm
- zone of inhibition at 25 µg/mL [3]: 20 mm
- zone of inhibition at 25 µg/mL (Escherichia Coli 078): 17.5 mm

Structure (SMILES): C[C@H](N)C(=O)NC(CC=CCC(=O)O)C(=O)O (stereo partly drawn) [Example 6, 6-(L-alanylamino)-3-heptenedioic acid]
- zone of inhibition at 25 µg/mL [3]: 24 mm
- zone of inhibition at 25 µg/mL [4]: 10 mm
